Source: patent US8722894B2, “1,3-disubstituted-4-phenyl-1H-pyridin-2-ones” (Janssen Pharmaceuticals, Inc., priority 2007, dated 2014)

How the values were obtained:
human mGluR2 receptor = target: T1, human mGluR2 receptor (Homo sapiens, UniProt Q14416); assay: [35S]GTPγS binding assay (GTPγS-PAM), membranes from cells transfected with the human mGluR2 receptor; type: biochemical; conditions: in presence of mGluR2 agonist glutamate at a predetermined EC25 concentration; CHO-cell membranes; averages of duplicate values of 11-concentration response curves; pEC50 = -logEC50; read-out: GTPgS - hR2 PAM pEC50 (converted)
T1 construct: expressed in transfected cells; host or cells: CHO cells
Method: The [^35S]GTPγS binding assay is a functional membrane-based assay used to study G-protein coupled receptor (GPCR) function whereby incorporation of a non-hydrolysable form of GTP, [^35S]GTPγS (guanosine 5′-triphosphate, labelled with […] ^35S), is measured. The G-protein α subunit catalyzes the exchange of guanosine 5′-diphosphate (GDP) by guanosine triphosphate (GTP) and on activation of the GPCR by an agonist, [^35S]GTPγS, becomes incorporated and cannot be cleaved to continue the exchange cycle (Harper (1998) Current Protocols in Pharmacology 2.6.1-10, John Wiley & Sons, Inc.). […] Here we describe the use of the [^35S]GTPγS binding assay using membranes from cells transfected with the human mGluR2 receptor and adapted from Schaffhauser et al ((2003) Molecular Pharmacology 4:798-810) for the detection of the positive allosteric modulation (PAM) properties of the compounds of this invention.
CHO-cells were cultured to pre-confluence and stimulated with 5 mM butyrate for 24 hours, prior to washing in PBS, and then collection by scraping in homogenisation buffer (50 mM Tris-HCl buffer, pH 7.4, 4° C.). Cell lysates were homogenized briefly (15 s) using an ultra-turrax homogenizer. The homogenate was centrifuged at 23 500×g for 10 minutes and the supernatant discarded. The pellet was resuspended in 5 mM Tris-HCl, pH 7.4 and centrifuged again (30 000×g, 20 min, 4° C.). The final pellet was resuspended in 50 mM HEPES, pH 7.4 and stored at −80° C. in appropriate aliquots before use. Protein concentration was determined by the Bradford method (Bio-Rad, USA) with bovine serum albumin as standard.
Measurement of mGluR2 positive allosteric modulatory activity of test compounds in membranes containing human mGluR2 was performed using frozen membranes that were thawed and briefly homogenised prior to pre-incubation in 96-well microplates (15 μg/assay well, 30 minutes, 30° C.) in assay buffer (50 mM HEPES pH 7.4, 100 mM NaCl, 3 mM MgCl2, 50 μM GDP, 10 μg/ml saponin,) with increasing concentrations of positive allosteric modulator (from 0.3 nM to 50 μM) and either a minimal pre-determined concentration of glutamate (PAM assay), or no added glutamate. For the PAM assay, membranes were pre-incubated with glutamate at EC25 concentration, i.e. a concentration that gives 25% of the maximal response glutamate, and is in accordance to published data (Pin et al. (1999) Eur. J. Pharmacol. 375:277-294). […] Filters were then air-dried, and 40 μl of liquid scintillation cocktail (Microscint-O) was added to each well, and membrane-bound [^35S]GTPγS was measured in a 96-well scintillation plate reader (Top-Count, Perkin-Elmer, USA). Non-specific [^35S]GTPγS binding is determined in the presence of cold 10 μM GTP. […]

T1 sequence (Q14416 19-872): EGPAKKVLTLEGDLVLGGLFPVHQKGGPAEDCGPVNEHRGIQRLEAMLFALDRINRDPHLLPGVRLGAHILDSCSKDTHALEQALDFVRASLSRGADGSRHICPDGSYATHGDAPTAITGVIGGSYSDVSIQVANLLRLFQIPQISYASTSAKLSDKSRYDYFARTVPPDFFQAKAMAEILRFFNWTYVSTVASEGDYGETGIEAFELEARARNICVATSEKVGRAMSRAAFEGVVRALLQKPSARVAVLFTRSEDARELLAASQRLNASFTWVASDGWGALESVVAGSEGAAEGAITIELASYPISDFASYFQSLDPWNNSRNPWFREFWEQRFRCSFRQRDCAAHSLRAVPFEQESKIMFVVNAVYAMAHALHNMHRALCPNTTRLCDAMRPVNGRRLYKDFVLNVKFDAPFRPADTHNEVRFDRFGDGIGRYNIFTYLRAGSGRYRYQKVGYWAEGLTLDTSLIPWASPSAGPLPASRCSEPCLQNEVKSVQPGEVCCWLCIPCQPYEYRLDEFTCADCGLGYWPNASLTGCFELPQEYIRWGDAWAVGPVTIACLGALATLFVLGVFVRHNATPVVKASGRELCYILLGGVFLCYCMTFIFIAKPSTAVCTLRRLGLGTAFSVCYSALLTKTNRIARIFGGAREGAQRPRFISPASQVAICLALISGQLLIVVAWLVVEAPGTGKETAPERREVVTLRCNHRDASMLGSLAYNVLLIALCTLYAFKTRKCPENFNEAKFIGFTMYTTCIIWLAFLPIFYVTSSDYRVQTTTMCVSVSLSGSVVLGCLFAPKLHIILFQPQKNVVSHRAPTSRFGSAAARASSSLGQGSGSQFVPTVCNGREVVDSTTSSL

| EC50 (human mGluR2 receptor) | melting point | SMILES |
| --- | --- | --- |
| 813 nM | 173 °C | O=c1c(Cl)c(-c2ccc(NC3CCOCC3)c(C(F)(F)F)c2)ccn1CC1CC1 [Compound 5] |
| 39.8 nM | 227.4 °C | CCCCn1ccc(-c2ccc(NC3CCC(C)(O)CC3)c(Cl)c2)c(Cl)c1=O (centres unmarked) [Compound 7] |
| 575 nM | 231 °C | O=c1c(Cl)c(-c2ccc(NC3CCOCC3)c(Cl)c2)ccn1CC1CC1 [Compound 6] |
| 275 nM | 154 °C | O=c1c(Cl)c(-c2ccc(OC3CCOCC3)c(Cl)c2)ccn1CCC1CC1 [Compound 4] |
